Measured values published in patent publication US20050020638A1, “Method of stabilizing lansoprazole” (priority 2003, published 2005).
Read-outs that look alike come from different tables or passages of the source.

Columns and labels:
[1] = Stability of stabilized vs. non-stabilized lansoprazole on storage (HPLC impurities and color); assay type: physicochemical; conditions: 40 °C, 75% humidity
Procedure: Chromatographic purity method of lansoprazole is detailed in the monograph in USP Forum Vol. 26 (5) [September-October 2000]. HPLC condition: Column C18 • Mobile phase: Gradient of triethylamine in water with acetonitrile • Flow: 0.8 ml/min • Detection: 285 nm Karl Fisher method for water determination is the USP method, 921. Ia, with the solvent: pyridine and ethylene glycol 9:1 as detailed in USP Forum Vol. 26 (5) [September-October 2000].

[2] = cited from earlier work
[3] = 1 month, lansoprazole of Example 2
[4] = 3 months, 'solvent free' lansoprazole of Example 3

LNP-SO2 (sulfone derivative) after storage [1, 3] [%] | LNPS (sulfide derivative) after storage [1, 3] [%] | Total impurities after storage [1, 3] [%] | Color after storage [1, 4] | LNP-SO2 (sulfone derivative) after storage [1, 4] [%] | LNPS (sulfide derivative) after storage [1, 4] [%] | Total impurities after storage [1, 4] [%] | Color after storage [1, 3] | Structure (SMILES) | Color after storage ([2]; 4 months at 40 °C and 75% room humidity) | Color after storage ([2]; 4 months at 40 °C, absence of humidity)
0.04 | 0.03 | 0.15 | Brownish | 0.04 | 0.06 | 0.31 |  | Cc1c(OCC(F)(F)F)ccnc1C[S+]([O-])c1nc2ccccc2[nH]1 (stereo not shown) [Lansoprazole not stabilized with ammonia, 2-[[3-methyl-4-(2,2,2-trifluoroethoxy)-2-pyridyl]methyl]sulfinyl-1H benzimidazole] |  | 
0.03 |  | 0.05 | white | 0.02 | 0.03 | 0.08 | white | Cc1c(OCC(F)(F)F)ccnc1C[S+]([O-])c1nc2ccccc2[nH]1 (stereo not shown) [Lansoprazole stabilized with ammonia, 2-[[3-methyl-4-(2,2,2-trifluoroethoxy)-2-pyridyl]methyl]sulfinyl-1H benzimidazole] |  | 
 |  |  |  |  |  |  |  | Cc1c(OCC(F)(F)F)ccnc1C[S+]([O-])c1nc2ccccc2[nH]1 (stereo not shown) [lansoprazole, (2-[[[3-methyl-4-(2,2,2-trifluoro-ethoxy)-2-pyridinyl]methyl]sulfinyl]-1H-benzimidazole)] | pale brown | pale yellowish brown
